# According to patent publication US20240116985A1, “STAPLED PEPTIDES AND METHODS THEREOF” (priority 2020, published 2024):
# Where two headings read alike, the source gives them in different places.
# How the values were obtained:
# [1] = target: T1, full-length beta-Catenin (Uniprot ID P35222) (Homo sapiens, UniProt P35222); assay: Fluorescence polarization IC50 (beta-catenin / 5FAM-TCF4 10-53 competition); format: binding; conditions: fluorescence polarization
# T1 construct: 10 nM full-length beta-Catenin (Uniprot ID P35222)
# T1 sequence (P35222 1-781): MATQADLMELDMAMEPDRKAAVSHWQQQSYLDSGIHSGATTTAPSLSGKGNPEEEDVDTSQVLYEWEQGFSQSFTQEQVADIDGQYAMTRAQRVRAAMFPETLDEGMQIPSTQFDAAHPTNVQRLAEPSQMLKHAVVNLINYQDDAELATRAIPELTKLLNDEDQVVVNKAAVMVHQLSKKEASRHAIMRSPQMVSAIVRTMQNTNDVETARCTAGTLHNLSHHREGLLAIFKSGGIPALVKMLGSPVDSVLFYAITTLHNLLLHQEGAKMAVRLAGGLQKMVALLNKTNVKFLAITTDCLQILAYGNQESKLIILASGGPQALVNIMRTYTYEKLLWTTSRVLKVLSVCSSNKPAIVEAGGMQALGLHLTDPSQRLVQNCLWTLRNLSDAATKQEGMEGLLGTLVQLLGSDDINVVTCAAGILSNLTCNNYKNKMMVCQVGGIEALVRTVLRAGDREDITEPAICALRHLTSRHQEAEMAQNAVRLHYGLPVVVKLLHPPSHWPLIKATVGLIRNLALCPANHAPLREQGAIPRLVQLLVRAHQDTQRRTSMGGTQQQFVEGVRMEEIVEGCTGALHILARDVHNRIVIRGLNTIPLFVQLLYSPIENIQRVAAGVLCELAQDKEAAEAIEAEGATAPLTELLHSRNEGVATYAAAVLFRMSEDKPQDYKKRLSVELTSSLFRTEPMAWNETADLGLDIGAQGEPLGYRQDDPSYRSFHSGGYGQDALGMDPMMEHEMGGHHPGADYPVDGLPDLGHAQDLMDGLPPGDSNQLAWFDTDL
# [2] = target: T2, beta-catenin/TCF4 engagement (Homo sapiens, UniProt P35222); assay: Nano-BRET target engagement assay (B-cat-Halo & TCF4-Luc in HEK293 cells); format: cell-based; conditions: read-out: NanoBRET Abs IC50
# T2 construct: expressed in transfected cells; host or cells: HEK293
# T2 sequence (P35222 1-781): T1 sequence (P35222 1-781)
Compound,IC50 ([1]; read-out: beta-Catenin FP IC50),IC50 [2],IC50 ([2]; absolute IC50),"IC50 ([1]; beta-catenin, read-out: FP EC50)"
"CC(=O)N1CCC[C@]12CC=CCCCC1(CCCC=CCCCOC(=O)N3CC[C@@](C(=O)N[C@@H](Cc4ccsc4)C(=O)N[C@@H](Cc4csc5ccccc45)C(=O)N[C@@H](CC(N)=O)C(=O)N[C@@H](C)C(=O)N[C@@H](C)C(=O)N[C@@H](C)C(N)=O)(C3)NC(=O)[C@H](CC(C)C)NC(=O)[C@H](Cc3ccccc3)NC(=O)[C@H](C)NC(=O)[C@H](C)NC(=O)[C@H](Cc3cccc(C(=O)O)c3)NC(=O)[C@H](CC(=O)O)NC1=O)NC(=O)[C@H](CC(C)(C)C)NC(=O)[C@H](CC(=O)O)NC2=O (stereo partly drawn) [I-2046, Ac-PL3-Asp-Npg-B5-Asp-3COOHF-Ala-Ala-Phe-Leu-PyrS2-3Thi-BztA-Asn-Ala-Ala-Ala-NH2]",12 nM,2.9 µM,,
"CC(=O)N1CCC[C@]12CC=CCCCC1(CCCC=CCCCOC(=O)N3CC[C@@](C(=O)N[C@@H](Cc4ccccc4C(F)(F)F)C(=O)N[C@@H](Cc4csc5ccccc45)C(=O)N[C@@H](CCC(N)=O)C(=O)N[C@@H](CC(C)C)C(=O)NC4(C(N)=O)CCCC4)(C3)NC(=O)[C@H](CC(C)C)NC(=O)[C@H](Cc3ccccc3)NC(=O)[C@H](C)NC(=O)[C@H](C)NC(=O)[C@H](Cc3cccc(C(=O)O)c3)NC(=O)[C@H](CC(=O)O)NC1=O)NC(=O)[C@H](CC(C)(C)C)NC(=O)[C@H](CC(=O)O)NC2=O (stereo partly drawn) [I-2387, Ac-PL3-Asp-Npg-B5-Asp-3COOHF-Ala-Ala-Phe-Leu-PyrS2-2F3MeF-BztA-Gln-Leu-CyLeu-NH2]",120 nM,,7.1 µM,
"CCSSCCOC(=O)C[C@@H]1NC(=O)[C@]2(CC=CCCCC3(CCCC=CCCCOC(=O)N4CC[C@@](C(=O)N[C@@H](Cc5ccsc5)C(=O)N[C@@H](Cc5csc6ccccc56)C(=O)N[C@@H](CCC(N)=O)C(N)=O)(C4)NC(=O)[C@H](CC(C)C)NC(=O)[C@H](Cc4ccccc4)NC(=O)[C@H](C)NC(=O)[C@H](C)NC(=O)[C@H](CC(=O)O)NC(=O)[C@H](CC(=O)O)NC3=O)NC(=O)[C@H](CC(C)(C)C)NC1=O)CCCN2C(C)=O (stereo partly drawn) [I-1963, Ac-PL3-[EtSSEt]AspE-Npg-B5-Asp-Asp-Ala-Ala-Phe-Leu-PyrS2-3Thi-BztA-Gln-NH2]",326 nM,25.6 µM,,
"CCCC[C@@H]1NC(=O)[C@H](Cc2cccc(C(=O)O)c2)NC(=O)[C@H](CC(=O)O)NC(=O)C2(CCCC=CCCCOC(=O)N3CC[C@@](C(=O)N[C@@H](Cc4ccsc4)C(=O)N[C@@H](Cc4csc5ccccc45)C(=O)N[C@@H](CC(C)(C)C)C(N)=O)(C3)NC(=O)[C@H](CC(C)C)NC(=O)[C@H](Cc3ccccc3)NC(=O)[C@H](C)NC1=O)CCCC=CC[C@]1(CCCN1C(C)=O)C(=O)N[C@@H](CC(=O)O)C(=O)N[C@@H](CC(C)(C)C)C(=O)N2 (stereo partly drawn) [I-2193, Ac-PL3-Asp-Npg-B5-Asp-3COOHF-nLeu-Ala-Phe-Leu-PyrS2-3Thi-BztA-Npg-NH2]",164 nM,39.9 µM,,
"CC(=O)N1CCC[C@]12CC=CCCCC1(CCCC=CCCCOC(=O)N3CC[C@@](C(=O)N[C@@H](Cc4ccccc4)C(=O)N[C@@H](Cc4csc5ccccc45)C(=O)N[C@@H](CC(=O)N4CCOCC4)C(N)=O)(C3)NC(=O)[C@H](CC(C)C)NC(=O)[C@H](Cc3ccccc3)NC(=O)[C@H](C)NC(=O)[C@H](CCCCNC(=O)CN3CCOCC3)NC(=O)[C@H](CCC(N)=O)NC(=O)[C@H](CC(=O)O)NC1=O)NC(=O)[C@H](CC1CCCCC1)NC(=O)[C@H](CC(N)=O)NC2=O (stereo partly drawn) [I-2527, Ac-PL3-Asn-Cha-B5-Asp-Gln-[MorphAc]Lys-Ala-Phe-Leu-PyrS2-Phe-BztA-MorphAsn-NH2]",263 nM,,> 20 µM,
"CC(=O)N1CCC[C@]12CC=CCCCC1(CCCC=CCCCOC(=O)N3CC[C@@](C(=O)N[C@@H](Cc4ccsc4)C(=O)N[C@@H](Cc4csc5ccccc45)C(=O)N[C@@H](CC(N)=O)C(=O)N[C@@H](CC(C)C)C(=O)N[C@@H](CC(C)C)C(=O)N[C@@H](CC(C)C)C(N)=O)(C3)NC(=O)[C@H](CC(C)C)NC(=O)[C@H](Cc3ccccc3)NC(=O)[C@H](C)NC(=O)[C@H](C)NC(=O)[C@H](Cc3cccc(C(=O)O)c3)NC(=O)[C@H](CC(=O)O)NC1=O)NC(=O)[C@H](CC(C)(C)C)NC(=O)[C@H](CC(=O)O)NC2=O (stereo partly drawn) [I-2275, Ac-PL3-Asp-Npg-B5-Asp-3COOHF-Ala-Ala-Phe-Leu-PyrS2-3Thi-BztA-Asn-Leu-Leu-Leu-NH2]",117 nM,,3.5 µM,

# Continued, values first:
IC50 ([1]; read-out: beta-Catenin FP IC50),IC50 [2],IC50 ([2]; absolute IC50),"IC50 ([1]; beta-catenin, read-out: FP EC50)",Compound
23 nM,,6.4 µM,,"CC(=O)N1CCC[C@]12CC=CCCCC1(CCCC=CCCCOC(=O)N3CC[C@@](C(=O)N[C@@H](Cc4ccsc4)C(=O)N[C@@H](Cc4csc5ccccc45)C(=O)N[C@@H](CCO)C(N)=O)(C3)NC(=O)[C@H](CC(C)C)NC(=O)[C@H](Cc3ccccc3)NC(=O)[C@H](C)NC(=O)[C@H](C)NC(=O)[C@H](CC(=O)O)NC(=O)[C@H](CC(=O)O)NC1=O)NC(=O)[C@H](CC(C)(C)C)NC(=O)[C@H](CC(=O)O)NC2=O (stereo partly drawn) [I-1499, Ac-PL3-Asp-Npg-B5-Asp-Asp-Ala-Ala-Phe-Leu-PyrS2-3Thi-BztA-Hse-NH2]"
19 nM,,4.1 µM,,"CC(=O)N1CCC[C@]12CC=CCCCC1(CCCC=CCCCOC(=O)N3CC[C@@](C(=O)N[C@@H](Cc4ccccc4C(F)(F)F)C(=O)N[C@@H](Cc4csc5ccccc45)C(=O)N[C@@H](CCCN4CCOCC4)C(N)=O)(C3)NC(=O)[C@H](CC(C)C)NC(=O)[C@H](Cc3ccccc3)NC(=O)[C@H](C)NC(=O)[C@H](C)NC(=O)[C@H](Cc3cccc(C(=O)O)c3)NC(=O)[C@H](CC(=O)O)NC1=O)NC(=O)[C@H](CC(C)(C)C)NC(=O)[C@H](CC(=O)O)NC2=O (stereo partly drawn) [I-1610, Ac-PL3-Asp-Npg-B5-Asp-3COOHF-Ala-Ala-Phe-Leu-PyrS2-2F3MeF-BztA-MorphNva-NH2]"
14 nM,,3.5 µM,,"CC(=O)N1CCC[C@]12CC=CCCCC1(CCCC=CCCCOC(=O)N3CC[C@@](C(=O)N[C@@H](Cc4ccccc4C(F)(F)F)C(=O)N[C@@H](Cc4csc5ccccc45)C(=O)N[C@@H](CCC(=O)N(C)C)C(N)=O)(C3)NC(=O)[C@H](CCC(=O)N3CCOCC3)NC(=O)[C@H](Cc3ccccc3)NC(=O)[C@H](C)NC(=O)[C@H](C)NC(=O)[C@H](Cc3cccc(C(=O)O)c3)NC(=O)[C@H](CC(=O)O)NC1=O)NC(=O)[C@H](CC(C)(C)C)NC(=O)[C@H](CC(=O)O)NC2=O (stereo partly drawn) [I-2538, Ac-PL3-Asp-Npg-B5-Asp-3COOHF-Ala-Ala-Phe-MorphGln-PyrS2-2F3MeF-BztA-Me2Gln-NH2]"
23 nM,,15.3 µM,,"CC(=O)N1CCC[C@]12CC=CCCCC1(CCCC=CCCCOC(=O)N3CC[C@@](C(=O)N[C@@H](Cc4ccsc4)C(=O)N[C@@H](Cc4csc5ccccc45)C(=O)N[C@@H](CCC(N)=O)C(N)=O)(C3)NC(=O)[C@H](CC(C)C)NC(=O)[C@H](Cc3ccccc3)NC(=O)[C@H](C)NC(=O)[C@H](C)NC(=O)[C@H](CN(CC(=O)O)C(=O)Cc3ccc(C(F)(F)F)cc3)NC(=O)[C@H](CC(=O)O)NC1=O)NC(=O)[C@H](CC(C)(C)C)NC(=O)[C@H](CC(=O)O)NC2=O (stereo partly drawn) [I-2236, Ac-PL3-Asp-Npg-B5-Asp-[4CF3PhAc]GA-Ala-Ala-Phe-Leu-PyrS2-3Thi-BztA-Gln-NH2]"
12 nM,,> 20 µM,,"C#CC(=O)N1CCC[C@]12CC=CCCCC1(CCCC=CCCCOC(=O)N3CC[C@@](C(=O)N[C@@H](Cc4ccccc4Cl)C(=O)N[C@@H](Cc4csc5ccccc45)C(=O)N[C@@H](C)C(N)=O)(C3)NC(=O)[C@H](CC(C)C)NC(=O)[C@H](Cc3ccccc3)NC(=O)[C@H](C)NC(=O)[C@H](C)NC(=O)[C@H](Cc3cccc(C(=O)O)c3)NC(=O)[C@H](CC(=O)O)NC1=O)NC(=O)[C@H](CC(C)(C)C)NC(=O)[C@H](CC(=O)O)NC2=O (stereo partly drawn) [I-2403, PropynOH-PL3-Asp-Npg-B5-Asp-3COOHF-Ala-Ala-Phe-Leu-PyrS2-2C1F-BztA-Ala-NH2]"
10 nM,,> 20 µM,,"C[C@@H]1NC(=O)[C@H](C)NC(=O)[C@H](CC(=O)O)NC(=O)[C@H](CC(=O)O)NC(=O)C2(CCCC=CCCCOC(=O)N3CC[C@@](C(=O)N[C@@H](Cc4ccsc4)C(=O)N[C@@H](Cc4csc5ccccc45)C(=O)N[C@@H](CCC(N)=O)C(N)=O)(C3)NC(=O)[C@H](CC(N)=O)NC(=O)[C@H](Cc3ccccc3)NC1=O)CCCC=CC[C@]1(CCCN1S(C)(=O)=O)C(=O)N[C@@H](CC(=O)O)C(=O)N[C@@H](CC(C)(C)C)C(=O)N2 (stereo partly drawn) [I-1218, MeSO2-PL3-Asp-Npg-B5-Asp-Asp-Ala-Ala-Phe-Asn-PyrS2-3Thi-BztA-Gln-NH2]"
44 nM,,14.6 µM,34 nM,"CC(=O)N1CCC[C@]12CC=CCCCC1(CCCC=CCCCOC(=O)N3CC[C@@](C(=O)N[C@@H](Cc4ccsc4)C(=O)N[C@@H](Cc4c[nH]c5ccccc45)C(=O)N[C@@H](CCC(N)=O)C(N)=O)(C3)NC(=O)[C@H](CC(C)C)NC(=O)[C@H](Cc3ccccc3)NC(=O)[C@H](C)NC(=O)[C@H](C)NC(=O)[C@H](CC(=O)O)NC(=O)[C@H](CC(=O)O)NC1=O)NC(=O)[C@H](CC(C)(C)C)NC(=O)[C@H](CC(=O)O)NC2=O (stereo partly drawn) [I-1431, Ac-PL3-Asp-Npg-B5-Asp-Asp-Ala-Ala-Phe-Leu-PyrS2-3Thi-Trp-Gln-NH2]"
